Where two headings read alike, the source gives them in different places.

This passage reports pest or weed control and plant injury results from patent US20240251792A1, “WEED CONTROL METHOD” (SYNGENTA CROP PROTECTION AG, priority 2021, published 2024).

Common to all, as to assay type: in vivo
One assay concerns weeds and/or crops. The assay can be described thus: Post-emergence biological efficacy (Table 4). To be noted: 312 h, 1000 g/ha, evaluated after 13 days. In outline:
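Scores are visual damage (0 = none, 100 = total), read 13 days after treatment at 24/18 °C with 15 h light. Plants had been sown in standard soil and grown 14 days before a spray of compound in F50/acetone, diluted with 0.2% Genapol X080.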

In another assay the test system is ZEAMX. The assay can be described thus: Pre-emergence biological efficacy (Table 3). To be noted: 312 h, 1000 g/ha, after 13 days, read-out: evaluation (100=total damage to plant; 0=no damage to plant). In outline: (§1)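 Sown pots, 1 d glasshouse (24/19 °C, 16 h light), pre-emergence spray of compound from 50 g/l AMA formulation diluted in 0.2% Genapol X080. Grown at 24/18 °C, 15 h light, 50% humidity, watered twice daily; scored 0–100 damage at 13 d.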

A further assay relates to IPOHE. The assay can be described thus: Pre-emergence biological efficacy (Table 3). To be noted: Ipomoea hederacea, 312 h, 1000 g/ha, after 13 days, read-out: evaluation (100=total damage to plant; 0=no damage to plant). In outline: as §1
The next assay has as its system ECHCG. The assay can be described thus: Pre-emergence biological efficacy (Table 3). To be noted: Echinochloa crus-galli, 312 h, 1000 g/ha, after 13 days, read-out: evaluation (100=total damage to plant; 0=no damage to plant). In short, it runs like this: as §1
The subject of another assay is SETFA. As to the kind of experiment: Pre-emergence biological efficacy (Table 3). Conditions: Setaria faberi, 312 h, 1000 g/ha, after 13 days, read-out: evaluation (100=total damage to plant; 0=no damage to plant). In short, it runs like this:
as §1

The next assay relates to AMARE. As to the kind of experiment: Pre-emergence biological efficacy (Table 3). To be noted: Amaranthus retroflexus, 312 h, 1000 g/ha, after 13 days, read-out: evaluation (100=total damage to plant; 0=no damage to plant). In short, it runs like this:
as §1

The next assay relates to AMAPA. The assay can be described thus: Pre-emergence biological efficacy (Table 3). To be noted: 312 h, 1000 g/ha, after 13 days, read-out: evaluation (100=total damage to plant; 0=no damage to plant). In outline: as §1
[1] abbreviates: AMAPA, read-out: damage to plant AMAPA (100=total damage; 0=no damage).
[2] abbreviates: ZEAMX, read-out: damage to plant ZEAMX (100=total damage; 0=no damage).
[3] abbreviates: Amaranthus retroflexus, AMARE, read-out: damage to plant AMARE (100=total damage; 0=no damage).
Setting [4] is: Echinochloa crus-galli, ECHCG, read-out: damage to plant ECHCG (100=total damage; 0=no damage).
[5] abbreviates: Ipomoea hederacea, IPOHE, read-out: damage to plant IPOHE (100=total damage; 0=no damage).
Setting [6] is: Setaria faberi, SETFA, read-out: damage to plant SETFA (100=total damage; 0=no damage).

For the compound `N#Cc1c(F)cccc1C(F)(F)C(=O)O` [Compound 1-261, 2-(2-Cyano-3-fluoro-phenyl)-2,2-difluoro-acetic acid], the pest or weed control at 1000 g/ha with weeds and/or crops (setting [1]) is 70%; with weeds and/or crops (setting [2]), 20%; in the assay on weeds and/or crops (setting [3]), 70%; in the assay on weeds and/or crops (setting [4]), 0%; in the assay with weeds and/or crops (setting [5]), 40%; in the assay with weeds and/or crops (setting [6]), 30%. The pest or weed control at 1000 g/ha was determined as 40% in the assay with IPOHE; 10% with ECHCG; 10% in the assay with SETFA; 40% with AMARE; 50% in the assay on AMAPA. Further, in the assay with ZEAMX, the plant injury at 1000 g/ha is 0%.

In the case of `O=C(O)C(F)(F)c1cccc2c1CCO2` [Compound 1-420, 2-(2,3-Dihydrobenzofuran-4-yl)-2,2-difluoro-acetic acid], the pest or weed control at 1000 g/ha was 70% in the assay on weeds and/or crops (setting [1]); 10% in the assay on weeds and/or crops (setting [2]); 80% with weeds and/or crops (setting [3]); 10% in the assay on weeds and/or crops (setting [4]); 70% in the assay with weeds and/or crops (setting [5]); 10% with weeds and/or crops (setting [6]). Besides, the pest or weed control at 1000 g/ha in the assay with IPOHE was determined as 70%; in the assay with ECHCG, 0%; in the assay with SETFA, 0%; in the assay with AMARE it was 80%; in the assay on AMAPA, 60%. Also, in the assay on ZEAMX, the plant injury at 1000 g/ha was 10%.

Turning to `O=C(O)C(F)(F)c1cccc(Cl)c1C1CC1` [Compound 1-428, 2-(3-Chloro-2-cyclopropyl-phenyl)-2,2-difluoro-acetic acid], the pest or weed control at 1000 g/ha in the assay on weeds and/or crops (setting [1]) came out at 90%; with weeds and/or crops (setting [2]), 10%; in the assay on weeds and/or crops (setting [3]) it was 90%; in the assay on weeds and/or crops (setting [4]), 10%; with weeds and/or crops (setting [5]), 90%; with weeds and/or crops (setting [6]), 0%. The pest or weed control at 1000 g/ha with IPOHE was found to be 80%; in the assay on ECHCG it was 0%; with SETFA it was 0%; with AMARE, 80%; in the assay on AMAPA, 90%. Also, in the assay on ZEAMX, the plant injury at 1000 g/ha worked out at 0%.

As for `COC(=O)c1c(Cl)cccc1C(F)(F)C(=O)O` [Compound 1-444, 2-(3-Chloro-2-methoxycarbonyl-phenyl)-2,2-difluoro-acetic acid], the pest or weed control at 1000 g/ha with weeds and/or crops (setting [1]) was 60%; in the assay on weeds and/or crops (setting [2]), 10%; in the assay with weeds and/or crops (setting [3]), 70%; in the assay with weeds and/or crops (setting [4]), 10%; with weeds and/or crops (setting [5]), 50%; with weeds and/or crops (setting [6]) it was 20%. Besides, the pest or weed control at 1000 g/ha came to 50% in the assay with IPOHE; 0% in the assay on ECHCG; 0% in the assay on SETFA; 40% with AMARE; 60% in the assay with AMAPA. The plant injury at 1000 g/ha with ZEAMX was 0%.

Regarding `O=C(O)C(F)(F)c1cccc(Cl)c1OC(F)F` [Compound 1-452, 2-[3-Chloro-2-(difluoromethoxy)phenyl]-2,2-difluoro-acetic acid], the pest or weed control at 1000 g/ha in the assay on weeds and/or crops (setting [1]) turned out to be 80%; in the assay on weeds and/or crops (setting [2]) it was 40%; in the assay on weeds and/or crops (setting [3]), 80%; in the assay with weeds and/or crops (setting [4]), 50%; with weeds and/or crops (setting [5]), 70%; with weeds and/or crops (setting [6]) it was 50%. For the same compound, the pest or weed control at 1000 g/ha worked out at 70% in the assay with IPOHE; 10% with ECHCG; 30% in the assay with SETFA; 50% in the assay on AMARE; 50% in the assay on AMAPA. In addition, the plant injury at 1000 g/ha in the assay on ZEAMX was determined as 30%.

Consider `COc1c(F)ccc(C(F)(F)C(=O)O)c1F` [Compound 1-458, 2-(2,4-Difluoro-3-methoxy-phenyl)-2,2-difluoro-acetic acid], for which the pest or weed control at 1000 g/ha with weeds and/or crops (setting [1]) was 90%; in the assay on weeds and/or crops (setting [2]), 40%; in the assay on weeds and/or crops (setting [3]), 90%; in the assay with weeds and/or crops (setting [4]), 90%; in the assay on weeds and/or crops (setting [5]), 70%; with weeds and/or crops (setting [6]), 90%. The pest or weed control at 1000 g/ha in the assay with IPOHE stood at 80%; with ECHCG, 0%; in the assay on SETFA, 0%; with AMARE it was 90%; in the assay with AMAPA it was 90%. For the same compound, the plant injury at 1000 g/ha in the assay with ZEAMX was determined as 20%.

For `O=C(O)C(F)(F)c1cccc(OC(F)F)c1Cl` [Compound 1-459, 2-[2-Chloro-3-(difluoromethoxy)phenyl]-2,2-difluoro-acetic acid], the pest or weed control at 1000 g/ha in the assay on weeds and/or crops (setting [1]) came out at 80%; in the assay on weeds and/or crops (setting [2]), 20%; in the assay on weeds and/or crops (setting [3]), 80%; in the assay with weeds and/or crops (setting [4]), 40%; in the assay with weeds and/or crops (setting [5]) it was 90%; with weeds and/or crops (setting [6]) it was 60%. In addition, the pest or weed control at 1000 g/ha is 90% in the assay on IPOHE; 50% in the assay on ECHCG; 100% in the assay with SETFA; 70% with AMARE; 80% in the assay on AMAPA. Also, the plant injury at 1000 g/ha in the assay on ZEAMX stood at 0%.

`N#Cc1c(F)ccc(C(F)(F)C(=O)O)c1Cl` [Compound 1-460, 2-(2-Chloro-3-cyano-4-fluoro-phenyl)-2,2-difluoro-acetic acid]: the pest or weed control at 1000 g/ha in the assay with weeds and/or crops (setting [1]) was found to be 90%; in the assay with weeds and/or crops (setting [2]) it was 10%; in the assay on weeds and/or crops (setting [3]), 90%; in the assay on weeds and/or crops (setting [4]) it was 20%; with weeds and/or crops (setting [5]), 60%; in the assay with weeds and/or crops (setting [6]), 40%. In addition, the pest or weed control at 1000 g/ha came out at 70% in the assay on IPOHE; 0% with ECHCG; 10% in the assay on SETFA; 80% with AMARE; 90% with AMAPA. For the same compound, the plant injury at 1000 g/ha in the assay on ZEAMX was determined as 10%.

On to `COc1ccc(C(F)(F)C(=O)O)c([N+](=O)[O-])c1F` [Compound 1-461, 2,2-Difluoro-2-(3-fluoro-4-methoxy-2-nitro-phenyl)acetic acid], for which the pest or weed control at 1000 g/ha in the assay with weeds and/or crops (setting [1]) stood at 80%; in the assay with weeds and/or crops (setting [2]), 0%; with weeds and/or crops (setting [3]), 80%; in the assay on weeds and/or crops (setting [4]), 10%; with weeds and/or crops (setting [5]), 20%; with weeds and/or crops (setting [6]) it was 30%. Also, the pest or weed control at 1000 g/ha was 20% in the assay with IPOHE; 0% in the assay with ECHCG; 30% with SETFA; 40% in the assay with AMARE; 30% in the assay with AMAPA. Moreover, the plant injury at 1000 g/ha in the assay on ZEAMX was 10%.
